Assay results taken from US20080194482A1, “Selective Apac2 Receptor Peptide Agonists” (priority 2005, published 2008).
Square brackets hold non-standard residues; d marks the D form. Peptide text beside a SMILES is read from it. * marks the point of attachment. Orn = NCCC[C@H](N)C(=O)O; Hexanoyl = CCCCCC(=O)*; Aib = CC(C)(N)C(=O)O

Tests used:
human PAC1 = target: T1, human PAC1 (Homo sapiens, UniProt P41586); experiment: Filter binding assay, 125I-labeled PACAP-27 tracer, PAC1 membranes; settings: read-out: Human PAC1 Receptor Binding (IC50; nM)
T1 construct: expressed in transfected cells
T1 sequence (P41586 21-468): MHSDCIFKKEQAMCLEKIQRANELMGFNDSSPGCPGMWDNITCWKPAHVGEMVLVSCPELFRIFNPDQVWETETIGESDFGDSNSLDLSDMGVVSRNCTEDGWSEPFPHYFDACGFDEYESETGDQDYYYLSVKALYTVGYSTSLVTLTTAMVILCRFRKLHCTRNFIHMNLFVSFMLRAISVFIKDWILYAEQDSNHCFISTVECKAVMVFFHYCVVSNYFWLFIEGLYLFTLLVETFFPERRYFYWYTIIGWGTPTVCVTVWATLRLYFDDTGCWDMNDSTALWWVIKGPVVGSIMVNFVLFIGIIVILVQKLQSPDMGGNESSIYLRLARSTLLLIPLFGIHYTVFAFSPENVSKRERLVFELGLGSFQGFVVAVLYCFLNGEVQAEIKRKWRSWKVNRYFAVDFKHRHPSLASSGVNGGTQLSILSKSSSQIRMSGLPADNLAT

human VPAC1 = target: T2, human VPAC1 (Homo sapiens, UniProt P32241); experiment: Filter binding assay, 125I-labeled VIP tracer, VPAC1 membranes; settings: read-out: Human VPAC1 Receptor Binding (IC50; nM)
T2 construct: expressed in transfected cells
T2 sequence (P32241 31-457): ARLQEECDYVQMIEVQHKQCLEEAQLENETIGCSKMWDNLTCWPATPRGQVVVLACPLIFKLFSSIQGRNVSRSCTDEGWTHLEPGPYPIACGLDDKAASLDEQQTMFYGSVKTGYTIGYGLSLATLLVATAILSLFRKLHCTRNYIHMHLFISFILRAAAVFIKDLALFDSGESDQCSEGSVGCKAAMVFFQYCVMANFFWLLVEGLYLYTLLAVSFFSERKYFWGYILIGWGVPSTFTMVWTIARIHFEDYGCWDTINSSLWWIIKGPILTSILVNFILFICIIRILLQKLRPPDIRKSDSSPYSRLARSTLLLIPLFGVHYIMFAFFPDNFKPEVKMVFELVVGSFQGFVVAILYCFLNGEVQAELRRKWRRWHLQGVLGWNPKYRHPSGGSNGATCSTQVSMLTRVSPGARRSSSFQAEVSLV

human VPAC2 [1] = target: T3, human VPAC2 (Homo sapiens, UniProt P41587); experiment: Filter binding assay, 125I-labeled VIP tracer, VPAC2 membranes; settings: read-out: Human VPAC2 Receptor Binding (IC50; nM)
T3 construct: expressed in transfected cells
T3 sequence (P41587 24-438): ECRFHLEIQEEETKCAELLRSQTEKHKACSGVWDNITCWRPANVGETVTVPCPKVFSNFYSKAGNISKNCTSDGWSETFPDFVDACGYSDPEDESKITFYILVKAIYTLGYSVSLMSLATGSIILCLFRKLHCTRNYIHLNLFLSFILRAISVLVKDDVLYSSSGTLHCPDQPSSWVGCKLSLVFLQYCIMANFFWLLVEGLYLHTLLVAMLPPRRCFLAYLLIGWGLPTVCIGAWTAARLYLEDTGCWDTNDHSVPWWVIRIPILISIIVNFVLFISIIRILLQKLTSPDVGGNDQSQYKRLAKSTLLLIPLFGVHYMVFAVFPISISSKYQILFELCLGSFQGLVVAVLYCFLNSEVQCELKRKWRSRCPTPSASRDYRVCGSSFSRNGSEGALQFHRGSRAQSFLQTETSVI

rat VPAC1 receptor = target: T4, rat VPAC1 receptor (Rattus norvegicus, UniProt P30083); experiment: DiscoveRx cAMP assay, in vitro potency at rat VPAC1 receptor; type: cell-based; settings: CHO-PO cells transiently transfected with rat VPAC1; cAMP generation; mean of two independent runs
T4 construct: expressed in transfected cells; host or cells: CHO-PO (transient, Lipofectamine)
T4 sequence (P30083 31-459): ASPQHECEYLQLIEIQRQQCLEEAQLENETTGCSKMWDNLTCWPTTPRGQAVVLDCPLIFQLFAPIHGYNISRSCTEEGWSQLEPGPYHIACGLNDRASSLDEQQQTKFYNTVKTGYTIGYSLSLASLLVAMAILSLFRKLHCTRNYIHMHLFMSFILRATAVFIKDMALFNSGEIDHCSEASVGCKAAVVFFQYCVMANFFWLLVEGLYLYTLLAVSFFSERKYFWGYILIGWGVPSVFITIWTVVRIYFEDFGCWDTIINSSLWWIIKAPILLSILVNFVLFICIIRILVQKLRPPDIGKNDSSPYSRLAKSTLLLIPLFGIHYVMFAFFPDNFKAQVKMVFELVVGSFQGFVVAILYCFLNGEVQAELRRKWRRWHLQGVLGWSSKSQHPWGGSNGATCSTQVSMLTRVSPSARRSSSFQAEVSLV
Description: DiscoveRx: CHO-PO cells are transiently transfected with rat VPAC1 or VPAC2 receptor DNA using commercially available transfection reagents (Lipofectamine from Invitrogen). The cells are seeded at a density of 10,000/well in a 96-well plate and are allowed to grow for 3 days in […] culture medium. At day 3, the assay is performed.
On the day of the experiment, the medium is removed. Also, the cells are washed twice. The cells are incubated in assay buffer plus IBMX for 15 minutes at room temperature. Afterwards, the stimuli are added and are dissolved in assay buffer. The stimuli are present for 30 minutes. Then, the assay buffer is gently removed. The cell lysis reagent of the DiscoveRx cAMP kit is added. Thereafter, the standard protocol for developing the cAMP signal as described by the manufacturer is used (DiscoveRx Inc., USA). EC50 values for cAMP generation are calculated from the raw signal or are based on absolute cAMP levels as determined by a standard curve performed on each plate.
Results for each agonist are the mean of two independent runs. Rat VPAC1 and VPAC2 results are only generated using the DiscoveRx assay.

[2] = Rat serum stability (activity remaining, CHO-VPAC2 DiscoveRx read-out); type: in vitro ADME
In short: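 Peptides preincubated overnight in rat serum at 37 °C without aprotinin versus 4 °C with aprotinin, then tested as 11-point 5× dilutions in duplicate on CHO-VPAC2 cells, 30 min at RT. cAMP measured by DiscoveRx kit against standards; EC50 derived for each aliquot.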

human VPAC2 [3] = target: T3, human VPAC2; experiment: Alpha screen cAMP assay, in vitro potency at human VPAC2 receptor; type: cell-based; settings: cAMP generation; single result from two analyses in a single run, some values average of more than one experiment
Description: Alpha screen: Cells are washed in the culture flask once with PBS. Then, the cells are rinsed with enzyme free dissociation buffer. The dissociated cells are removed. The cells are then spun down and washed in stimulation buffer. For each data point, 50,000 cells suspended in stimulation buffer are used. To this buffer, Alpha screen acceptor beads are added along with the stimuli. This mixture is incubated for 60 minutes. Lysis buffer and Alpha screen donor beads are added and are incubated for 60 to 120 minutes. The Alpha screen signal (indicative of intracellular cAMP levels) is read in a suitable instrument (e.g. AlphaQuest from Perkin-Elmer). Steps including Alpha screen donor and acceptor beads are performed in reduced light. The EC50 for cAMP generation is calculated from the raw signal or is based on absolute cAMP levels as determined by a standard curve performed on each plate.
Results for each agonist are, at minimum, from two analyses performed in a single run. For some agonists, the results are the mean of more than one run. The tested peptide concentrations are: 10000, 1000, 100, 10, 3, 1, 0.1, 0.01, 0.003, 0.001, 0.0001 and 0.00001 nM.

rat VPAC2 receptor = target: T5, rat VPAC2 receptor (Rattus norvegicus, UniProt P35000); experiment: DiscoveRx cAMP assay, in vitro potency at rat VPAC2 receptor; type: cell-based; settings: CHO-PO cells transiently transfected with rat VPAC2; cAMP generation; mean of two independent runs
T5 construct: expressed in transfected cells; host or cells: CHO-PO (transient, Lipofectamine)
T5 sequence (P35000 23-437): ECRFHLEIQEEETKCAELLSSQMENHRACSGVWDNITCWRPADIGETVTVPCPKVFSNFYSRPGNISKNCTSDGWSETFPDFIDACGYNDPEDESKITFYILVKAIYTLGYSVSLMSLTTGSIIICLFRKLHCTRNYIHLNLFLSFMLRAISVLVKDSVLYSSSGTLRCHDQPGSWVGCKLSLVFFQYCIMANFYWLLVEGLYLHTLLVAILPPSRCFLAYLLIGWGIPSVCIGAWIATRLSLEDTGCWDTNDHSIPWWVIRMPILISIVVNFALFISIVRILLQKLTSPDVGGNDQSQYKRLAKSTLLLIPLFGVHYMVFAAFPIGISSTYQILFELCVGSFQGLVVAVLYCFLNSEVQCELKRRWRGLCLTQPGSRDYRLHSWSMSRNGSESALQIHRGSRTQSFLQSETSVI

Which IC50 (human PAC1) does the source give for `CCCCCC(=O)N[C@@H](Cc1c[nH]cn1)C(=O)N[C@@H](CO)C(=O)N[C@@H](CC(=O)O)C(=O)N[C@@H](C)C(=O)N[C@H](C(=O)N[C@@H](Cc1ccccc1)C(=O)N[C@H](C(=O)N[C@@H](CC(=O)O)C(=O)N[C@@H](CC(N)=O)C(=O)N[C@@H](Cc1ccc(O)cc1)C(=O)N[C@H](C(=O)N[C@@H](CCCN)C(=O)N[C@@H](CC(C)C)C(=O)N[C@@H](CCCNC(=N)N)C(=O)NC(C)(C)C(=O)N[C@@H](CCC(N)=O)C(=O)N[C@H](C(=O)N[C@@H](CO)C(=O)N[C@@H](C)C(=O)NC(C)(C)C(=O)N[C@@H](CCCCN)C(=O)N[C@@H](Cc1ccc(O)cc1)C(=O)N[C@@H](CC(C)C)C(=O)N[C@@H](CCC(N)=O)C(=O)N[C@@H](CO)C(=O)N[C@H](C(=O)N[C@@H](CCCN)C(=O)N[C@@H](CC(N)=O)C(=O)N[C@@H](CCCN)C(=O)NCC(=O)NCC(=O)N1CCC[C@H]1C(=O)N[C@@H](CO)C(=O)N[C@@H](CO)C(=O)NCC(=O)N[C@@H](C)C(=O)N1CCC[C@H]1C(=O)N1CCC[C@H]1C(=O)N1CCC[C@H]1C(=O)N[C@@H](CO)C(=O)O)[C@@H](C)CC)C(C)C)[C@@H](C)O)[C@@H](C)O)C(C)C` [Agonist P388] (Hexanoyl-HSDAVFTDNYT[Orn]LR[Aib]QVSA[Aib]KYLQSI[Orn]N[Orn]GGPSSGAPPPS-OH; C-terminus assumed) here?
Its IC50 is greater than 25000 nM.

What about the IC50 (human VPAC1) of the same compound?
Its IC50 is greater than 3000 nM.

And the IC50 (human VPAC2 [1])?
The IC50 was no less than 100 nM.

And the EC50 (rat VPAC1 receptor)?
The EC50 was greater than 2000 nM.

With `CCCCCC(=O)N[C@@H](Cc1c[nH]cn1)C(=O)N[C@@H](CO)C(=O)N[C@@H](CC(=O)O)C(=O)N[C@@H](C)C(=O)N[C@H](C(=O)N[C@@H](Cc1ccccc1)C(=O)N[C@H](C(=O)N[C@@H](CCC(=O)O)C(=O)N[C@@H](CCC(N)=O)C(=O)N[C@@H](Cc1ccc(OC)cc1)C(=O)N[C@H](C(=O)N[C@@H](CCCN)C(=O)N[C@@H](CC(C)C)C(=O)N[C@@H](CCCNC(=N)N)C(=O)NC(C)(C)C(=O)N[C@@H](CCC(N)=O)C(=O)N[C@H](C(=O)N[C@@H](C)C(=O)N[C@@H](C)C(=O)NC(C)(C)C(=O)N[C@@H](CCCN)C(=O)N[C@@H](Cc1ccc(O)cc1)C(=O)N[C@@H](CC(C)C)C(=O)N[C@@H](CCC(N)=O)C(=O)N[C@@H](CO)C(=O)N[C@H](C(=O)N[C@@H](CCCN)C(=O)N[C@@H](CCCN)C(=O)NCC(=O)NCC(=O)N1CCC[C@H]1C(=O)N[C@@H](CO)C(=O)N[C@@H](CO)C(=O)NCC(=O)N[C@@H](C)C(=O)N1CCC[C@H]1C(=O)N1CCC[C@H]1C(=O)N1CCC[C@H]1C(=O)N[C@@H](CO)C(N)=O)[C@@H](C)CC)C(C)C)[C@@H](C)O)[C@@H](C)O)C(C)C` [Agonist P488] (Hexanoyl-HSDAVFTEQY(Me)T[Orn]LR[Aib]QVAA[Aib][Orn]YLQSI[Orn][Orn]GGPSSGAPPPS-NH2) as the compound, how does the “Rat Serum Stability (estimated purity in % after overnight incub.)” value [2] read?
Its value is 193.17%.

And the IC50 (human VPAC1)?
The IC50 was greater than 1000 nM.

What about the IC50 (human VPAC2 [1]) of the same compound?
The IC50 was 0.64 nM.

What about the EC50 (rat VPAC1 receptor) of the same compound?
The EC50 was 1.66 nM.

And the EC50 (human VPAC2 [3])?
The EC50 was 0.19 nM.

And the EC50 (rat VPAC2 receptor)?
The EC50 was 0.09 nM.

Which IC50 (human PAC1) does the source give for `CCCCCC(=O)N[C@@H](Cc1c[nH]cn1)C(=O)N[C@@H](CO)C(=O)N[C@@H](CC(=O)O)C(=O)N[C@@H](C)C(=O)N[C@H](C(=O)N[C@@H](Cc1ccccc1)C(=O)N[C@H](C(=O)N[C@@H](CC(=O)O)C(=O)N[C@@H](CCC(N)=O)C(=O)N[C@@H](Cc1ccc(O)cc1)C(=O)N[C@H](C(=O)N[C@@H](CCCN)C(=O)N[C@@H](CC(C)C)C(=O)N[C@@H](CCCNC(=N)N)C(=O)NC(C)(C)C(=O)N[C@@H](CCC(N)=O)C(=O)N[C@@H](CC(C)C)C(=O)N[C@@H](C)C(=O)N[C@@H](C)C(=O)NC(C)(C)C(=O)N[C@@H](CCCN)C(=O)N[C@@H](Cc1ccc(O)cc1)C(=O)N[C@@H](CC(C)C)C(=O)N[C@@H](CCC(N)=O)C(=O)N[C@@H](CO)C(=O)N[C@H](C(=O)N[C@@H](CCCN)C(=O)N[C@@H](CCCN)C(=O)NCC(=O)NCC(=O)N1CCC[C@H]1C(=O)N[C@@H](CO)C(=O)N[C@@H](CO)C(=O)NCC(=O)N[C@@H](C)C(=O)N1CCC[C@H]1C(=O)N1CCC[C@H]1C(=O)N1CCC[C@H]1C(=O)N[C@@H](CO)C(=O)O)[C@@H](C)CC)[C@@H](C)O)[C@@H](C)O)C(C)C` [Agonist P395] (Hexanoyl-HSDAVFTDQYT[Orn]LR[Aib]QLAA[Aib][Orn]YLQSI[Orn][Orn]GGPSSGAPPPS-OH; C-terminus assumed) here?
Its IC50 is greater than 25000 nM.

And the IC50 (human VPAC2 [1])?
The IC50 was 0.24 nM.

What about the EC50 (rat VPAC1 receptor) of the same compound?
Its EC50 is 0.35 nM.

What about the EC50 (human VPAC2 [3]) of the same compound?
The EC50 was 0.15 nM.

And the EC50 (rat VPAC2 receptor)?
Its EC50 is 0.03 nM.
